Assays:
[1] = target: T1, TF-VIIa (Homo sapiens, UniProt P08709); assay: TF-VIIa Assay; type: biochemical; conditions: for IC50 or % Inhibition TF-VIIa (30 µM): % inhibition at 30 µM (cells with % or %@30, bare 0); for IC50: cells printed as bare numbers (IC50), read-out: IC50 or % Inhibition TF-VIIa (30 µM)
T1 construct: An extrinsic pathway is initiated by the conversion of coagulation factor VII to VIIa by Xa; purchased American Diagnostica, Greenwich CT; Soluble TF was made in house in E. coli

[2] = target: T2, Human factor Xa (Homo sapiens, UniProt P00742); assay: Xa Assay; type: biochemical; conditions: % inhibition at 30 µM (cells with % or %@30, bare 0)
T2 construct: leads from XII to XIIa to XIa to IXa and to the conversion of X to Xa; purchased Enzyme Research Laboratories, South Bend IN

[3] = target: Trypsin (Sus scrofa, UniProt P00761); assay: Trypsin Assay; conditions: for IC50 or % Inhibition Trpysin II (30 uM): % inhibition at 30 uM (cells with % or %@30, bare 0); for IC50: read-out: IC50 or % Inhibition Trpysin II (30 uM), cells printed as bare numbers (IC50)
Chain of Trypsin (P00761 9-231): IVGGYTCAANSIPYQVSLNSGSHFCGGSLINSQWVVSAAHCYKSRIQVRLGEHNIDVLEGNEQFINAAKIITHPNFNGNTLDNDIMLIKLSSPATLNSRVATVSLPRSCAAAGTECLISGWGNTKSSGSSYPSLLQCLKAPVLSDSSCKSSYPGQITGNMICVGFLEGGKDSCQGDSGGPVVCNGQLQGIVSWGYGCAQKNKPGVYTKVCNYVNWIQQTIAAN

T1 sequence (P08709 213-466 limits assumed): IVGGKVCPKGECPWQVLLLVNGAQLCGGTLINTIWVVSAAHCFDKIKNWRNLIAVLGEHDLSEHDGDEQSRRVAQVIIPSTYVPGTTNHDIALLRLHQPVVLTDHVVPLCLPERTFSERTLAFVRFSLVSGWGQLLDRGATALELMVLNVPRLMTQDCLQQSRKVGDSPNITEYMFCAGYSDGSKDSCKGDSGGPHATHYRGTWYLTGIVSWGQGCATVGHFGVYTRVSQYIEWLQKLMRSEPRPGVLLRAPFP
T1 sequence (P08709 61-212 limits assumed): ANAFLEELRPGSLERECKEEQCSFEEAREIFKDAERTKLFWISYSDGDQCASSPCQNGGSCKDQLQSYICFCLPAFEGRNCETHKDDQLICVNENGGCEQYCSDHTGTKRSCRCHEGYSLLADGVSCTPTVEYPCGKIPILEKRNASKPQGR
T1 sequence (P13726 33-251 partner limits assumed): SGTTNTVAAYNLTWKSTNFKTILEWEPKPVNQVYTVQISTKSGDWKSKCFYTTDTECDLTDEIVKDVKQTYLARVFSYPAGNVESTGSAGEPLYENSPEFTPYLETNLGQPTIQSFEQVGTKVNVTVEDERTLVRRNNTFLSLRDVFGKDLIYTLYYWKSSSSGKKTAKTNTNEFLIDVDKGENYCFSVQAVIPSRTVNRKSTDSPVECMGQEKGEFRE
T2 sequence (P00742 235-488 limits assumed): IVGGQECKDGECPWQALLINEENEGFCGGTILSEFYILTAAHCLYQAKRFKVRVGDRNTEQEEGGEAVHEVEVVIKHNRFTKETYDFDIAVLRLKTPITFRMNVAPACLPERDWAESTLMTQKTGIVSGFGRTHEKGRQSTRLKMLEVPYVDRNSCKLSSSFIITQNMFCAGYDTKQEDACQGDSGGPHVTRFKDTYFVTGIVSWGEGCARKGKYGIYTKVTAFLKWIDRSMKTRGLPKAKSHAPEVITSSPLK
T2 sequence (P00742 41-179 limits assumed): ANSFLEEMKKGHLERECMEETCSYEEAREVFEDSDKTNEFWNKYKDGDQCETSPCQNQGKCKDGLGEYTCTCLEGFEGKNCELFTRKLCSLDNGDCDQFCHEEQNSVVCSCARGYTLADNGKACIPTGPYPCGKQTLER

SMILES | IC50 or % Inhibition TF-VIIa (30 µM) [1] | IC50 or % Inhibition Factor Xa (30 µM) [2] | IC50 or % Inhibition Trpysin II (30 uM) [3] | IC50 [1] [µM] | IC50 [3] [µM]
N=C(N)c1ccc(CNC(=O)Cn2c(-c3ccc(-c4ccccc4)cc3)c(Cl)nc(NCc3ccncc3)c2=O)cc1 [1471-67] | 12% | 16% |  |  | 
Cc1cccc(Cl)c1CNc1nc(Cl)c(-c2ccccc2)n(CC(=O)NCc2ccc(C(=N)N)cc2)c1=O [1512-31] | 43% | 14% |  |  | 
Nc1cccc(-c2c(Cl)nc(NC3CCC3)c(=O)n2CC(=O)NCCc2ccccc2)c1 [compound 89] | 5%@30 | 5%@30 | 9%@30 |  | 
N=C(N)c1ccc(CNC(=O)C(Cc2ccccc2)n2c(-c3ccccc3)c(Cl)nc(NC3CCC3)c2=O)cc1 (stereo not shown) [1517-08] | 43% | 0% |  |  | 
COc1ccc(-c2c(Cl)nc(NCc3ccccc3)c(=O)n2CC(=O)NCc2ccc(C(=N)N)cc2)cc1 [1471-33] | 31% | 22% |  |  | 
N=C(N)c1ccc(CNC(=O)Cn2c(-c3ccccc3)c(Cl)nc(NCc3cc(F)cc(C(F)(F)F)c3)c2=O)cc1 [1512-29] | 47% | 4% |  |  | 
Nc1ccc(CNC(=O)Cn2c(CCc3ccccc3)c(Cl)nc(NCCc3ccccc3)c2=O)cn1 [Example 10, 3-(2-Phenylethylamino)-5-chloro-6-phenethyl-1-(2-amino-5-methylcarboxamidomethylpyridinyl)pyrazinone] |  |  |  | > 30 | > 30
COc1ccc(-c2c(Cl)nc(NCCc3ccncc3)c(=O)n2CC(=O)NCc2ccc(C(=N)N)cc2)cc1 [1471-37] | 39% | 7% |  |  | 
CC(C)Nc1nc(Cl)c(-c2cccc([N+](=O)[O-])c2)n(CC(=O)NCc2ccc(C(N)=NO)cc2)c1=O [Example 61] | 1% | 0% | 10% |  | 
CCc1c(Cl)nc(NCCc2cccc(Cl)c2)c(=O)n1CC(=O)NCc1ccc(C(=N)N)cc1 [1471-62] | 4% | 0% |  |  | 
CCCCNc1nc(Cl)c(-c2ccccc2)n(CC(=O)NCc2ccc(C(=N)N)cc2)c1=O [1517-35] | 33% | 0% |  |  | 
N=C(N)c1ccc(CNC(=O)Cn2c(-c3ccc(-c4ccccc4)cc3)c(Cl)nc(NCCc3ccccc3)c2=O)cc1 [1471-71] | 6% | 0% |  |  | 
N=C(N)c1ccc(CNC(=O)Cn2c(-c3ccccc3)c(Cl)nc(NCc3c(F)cccc3C(F)(F)F)c2=O)cc1 [1512-44] | 43% | 6% |  |  | 
N=C(N)NCC#CCNC(=O)Cn1c(-c2ccccc2)cnc(NCCc2ccccc2)c1=O [Example 36] | 5% | 0% | 30% |  | 
N=C(N)c1ccc(CNC(=O)C(Cc2ccccc2)n2c(-c3ccccc3)c(Cl)nc(NCCc3ccccc3)c2=O)cc1 (stereo not shown) [1517-14] | 30% | 0% |  |  | 
N=C(N)c1ccc(CNC(=O)Cn2c(-c3ccc4c(c3)OCO4)c(Cl)nc(NCCN3CCOCC3)c2=O)cc1 [1471-44] | 34% | 13% |  |  | 
N=C(N)c1ccc(CNC(=O)Cn2c(-c3ccccc3)c(Cl)nc(NCC3CC3)c2=O)cc1 [1517-43] | 25% | 0% | 43% |  | 
N=C(N)c1ccc(CNC(=O)C(Cc2ccccc2)n2c(-c3ccccc3)c(Cl)nc(NCCc3cccc(Cl)c3)c2=O)cc1 (stereo not shown) [1517-20] | 22% | 0% |  |  | 
Nc1ccc(CNC(=O)Cn2c(Cc3ccccc3)c(Cl)nc(NCCc3ccccc3)c2=O)cn1 [Example 9] |  |  |  | > 30 | > 30
N=C(N)c1ccc(CNC(=O)Cn2c(-c3ccccc3)c(Cl)nc(NCC(F)(F)F)c2=O)cc1 [1507-41] | 48% | 17% |  |  | 
N=C(N)c1ccc(CNC(=O)Cn2c(-c3ccc(Cl)cc3)c(Cl)nc(NCc3ccncc3)c2=O)cc1 [1471-19] | 33% | 26% |  |  | 
N=C(N)c1ccc(CNC(=O)Cn2c(-c3ccccc3)c(Cl)nc(NCc3ccccn3)c2=O)cc1 [1507-24] | 0% | 15% | 25%@30 |  | 
Nc1cccc(-c2c(Cl)nc(NC3CCC3)c(=O)n2CC(=O)NCc2ccccc2)c1 [compound 99] | 6%@30 | 8%@30 | 7%@30 |  | 
